Series [1] in a line: Hydrogen Peroxide Decomposition Ratio Measurement Protocol. The conditions noted are these: for Peroxide % at t = 0 / Peroxide % at t = 30mn / Hydrogen Peroxide Decomposition Ratio (% Loss): pH 10, 300 ppm copper sulphate, 0.026M chelant; for Hydrogen Peroxide Decomposition Ratio (% Loss): after 30 minutes.
Description: The Hydrogen Peroxide Decomposition Ratio Measurement Protocol is defined as follows: 6.0% by weight of concentrated ammonium hydroxide (30% active ammonia) is added to deionised water and the pH of the solution is adjusted to 10 using acetic acid. 300 ppm of copper sulphate and 0.026M of the chelant to be tested are added to said composition. […] The initial level of hydrogen peroxide is measured at this moment (t=0); the final level of hydrogen peroxide is measured after 30 minutes. The value of the ratio of the hydrogen peroxide concentration at t=0 and at t=30 mn is the Hydrogen Peroxide Decomposition Ratio (% Loss).
The initial and final level of hydrogen peroxide can be measured according to any standard technique. The following is a well-known and standard technique that was used by the inventors: 0.2-0.3 g (the exact quantity being precisely measured) of the solution to be titrated is added to 40 ml of 10% acetic acid. […] The level of hydrogen peroxide (% Peroxide) is then calculated from the following equation: [formula]
Three replicate runs are made at both t=0 and t=30 mn and then averaged to calculate the Hydrogen Peroxide Decomposition Ratio (% Loss).
Series [2] is described as follows: FT-IR Damage Assessing Protocol after 5-Cycle Oxidative Hair Treatment Protocol With 2 Intermediate Washes. Also noted: species or system human. The conditions noted are these: for Damage after 5 cycles (cysteic acid units): 2 intermediate washes, pH 10. The protocol: For each chelant tested, seven switches of virgin dark hair were used. […] The switches usually weighed about 1.5 g each and are treated stepwise according to the following protocol.
A bleaching composition comprising the chelant to be tested is prepared by mixing in equal weight amounts a hydrogen peroxide emulsion base and an alkaline (high pH) emulsion base.
2 g Of the bleaching composition per g of hair to be treated was applied on the hair switches and massaged in thoroughly. The hair switches were then wrapped in a plastic film and put in an oven at 30° C. After 30 mn, they were removed from the oven and from the wrapping film and rinsed for 1 mn in water. 0.1 g of shampoo per g. of hair was then added and milked for 30 s at a rate of at least 150 strokes a minute before rinsing for 30 s. […] The concentration of copper (Cu^2+) ions was kept at about 1 ppm (+/−10%), the exact concentrations being measured by a standard analytic method. The rinsing water flow was adjusted to 6 liters per minute). The same shampooing and rinsing process was repeated another time (this is the “Oxidative Hair Treatment Protocol With 2 Intermediate Washes” referred to in the claims) or 9 additional times (this is the “Oxidative Hair Treatment Protocol With 10 Intermediate Washes” referred to in the claims) depending on the Damage Assessment Protocol used. The excess water was then squeezed out of the hair, and the hair dried with a fan. Any standard shampoo can be used in this protocol as long as it is free from transition metal ions such as copper ion and that the level chelants is less than 0.1% by weight of the shampoo. Prell® shampoo was using during these tests.
This Oxidative Hair Treatment Protocol can be repeated several times. […] This process is described as a 5-Cycle Oxidative Hair Treatment Protocol With 2 or 10 Intermediate Washes.
In particular, these authors have shown that the method is suitable for quantifying the amount of cysteic acid that is produced from the oxidation of cystine. In general, the oxidation of cystine is thought to be a suitable marker by which to monitor the overall oxidation of the keratinous part of the fiber.
They have shown that this technique is more suitable than using the FT-IR method in simple transmission or microscope modes. […] The detailed description of the method used for testing the different damage inhibitors follows thereafter:
A Perkin Elmer Spectrum® 1 Fourier Transform Infrared (FTIR) system equipped with a diamond Attenuated Total Internal Reflection (ATR) cell was used to measure the cysteic acid concentration in human hair. In this method, hair switches of various sizes and colours can be used. The switches were platted (˜1 plait per cm) in order to minimize variations in surface area of contact between readings. The Oxidative Hair Treatment Protocol described above was repeated for 5 cycles to mimic the behavior of hair after repeated bleaching cycles. Following this treatment, four readings per switch were taken (˜⅓ and ⅔ s down the switch on both sides), and an average calculated. Backgrounds were collected every 4 readings, and an ATR cell pressure of 1N/m was employed. The cell was cleaned with ethanol between each reading, and a contamination check performed using the monitor ratio mode of the instrument. […] The original spectra were initially converted to absorbance, before being normalized to the 1450 cm^−1 band (the characteristic and invariant protein CH2 stretch). This normalized absorbance was then twice derivatised using a 13 point averaging. The value of the 1450 cm^−1 normalized 2nd derivative of the absorbance at 1040 cm^−1 was taken as the relative concentration of cysteic acid. This figure was multiplied by −1×10^−4 to recast it into suitable units. […] The following instrumental conditions were employed:
The weight percentages for each chelant are indicated in the first line of the table below.

Test in series [3]: not given
The source holds these as a separate data set.

For series [4] the following is noted: 25deg, 0.1M ionic strength; fully deprotonated chelants; cited from earlier work.
For series [5] the following is noted: tetra-protonated chelants; cited from earlier work.
Series [6] in a line: log Conditional Stability Constant at pH 10 with Cu. The conditions noted are these: for Ratio Cu/Ca of log Conditional Stability Constants: log KCuL / log KCaL.
For series [7] the following is noted: 25deg, 0.1M ionic strength; fully deprotonated chelants; cited from earlier work. The source holds these as a separate data set.
A short description of series [8]: Goniophotometer Damage Assessing Protocol after Oxidative Hair Treatment Protocol With 10 Intermediate Washes. Also noted: species or system human. How it is done:
A bleaching composition comprising the chelant to be tested is prepared by mixing in equal weight amounts a hydrogen peroxide emulsion base and an alkaline (high pH) emulsion base. 2 g Of the bleaching composition per g of hair to be treated was applied on the hair switches and massaged in thoroughly. The hair switches were then wrapped in a plastic film and put in an oven at 30° C. […] The rinsing water flow was adjusted to 6 liters per minute). […] The excess water was then squeezed out of the hair, and the hair dried with a fan. […] Prell® shampoo was using during these tests. This Oxidative Hair Treatment Protocol can be repeated several times.

The nature of series [9]: log Conditional Stability Constant at pH 10 with Ca.
Setting [10] is: 3.8% weight on-head, tetra-sodium salt, 5 cycles.
The mark [11] stands for this setting: 1.9% weight on-head, tri-sodium salt, 5 cycles.
The mark [12] stands for this setting: 2.0% weight on-head (tetra-sodium EDTA, di-sodium HEDP), 5 cycles.

The values below come from patent publication US20070107143A1, “Oxidative treatment of hair with reduced hair damage” (priority 2001, published 2007).

Where two headings read alike, the source gives them in different places.

As for `O=P(O)(O)CN(CCN(CP(=O)(O)O)CP(=O)(O)O)CCN(CP(=O)(O)O)CP(=O)(O)O` [DTPMP, diethylene-triamine-penta-(methylenephosphonic acid)], the “log Conditional Stability Constant (pH 10) Ca” value worked out at 4.74. Besides, in series [1], the “Peroxide % at t = 0” value came out at 3.078% and the “Peroxide % at t = 30mn” value was 2.964%. In addition, in [2] (setting [10]), the “Damage benefit vs EDTA 2%” value was “+14%” and the “Damage after 5 cycles (cysteic acid units)” value (“Damage after 5 cycles” below) is on record as 142 cysteic acid units. For the same molecule, the “log Conditional Stability Constant (pH 10) Cu” value in series [3] is given as 15.14.

For the molecule `O=C(O)CC(NCCNC(CC(=O)O)C(=O)O)C(=O)O` (stereo not drawn) [EDDS, ethylenediamine-N,N′-disuccinic acid], in [1], the “Hydrogen Peroxide Decomposition Ratio (% Loss)” value was 1.5%, the “Peroxide % at t = 0” value was 3.150% and the “Peroxide % at t = 30mn” value is 3.104%. The “log K (stability constant, 1:1 complex) Ca” value in series [4] is given as 4.58. Also, in series [5], the “log protonation constant H2L^2−” value is listed as 6.84, the “log protonation constant H3L^−” value is 3.86, the “log protonation constant H4L” value is 2.95 and the “log protonation constant HL^3−” value is 10.01. Besides, the “Hair damage compared with any other chelant (in words)” value in series [2] (1.9% by weight, 5 cycles) was “much less damage”. In series [2] (setting [11]), the “Damage benefit vs EDTA 2%” value is reported as “+33%” and the “Damage after 5 cycles” value is 110 cysteic acid units. In addition, the “Damage benefit (in words)” value in [2] (concentrations much lower than 1.9% by weight on head) was “excellent benefits”. Also, in series [6], the “log Conditional Stability Constant (pH 10) Cu” value was 16.04 and the “Ratio Cu/Ca of log Conditional Stability Constants” value is 3.76. The “log K (stability constant, 1:1 complex) Cu” value in series [7] is 18.35. Moreover, the “Normalized shine ratio (hair treated after 9 cycles/ virgin hair)” value (“Normalized shine ratio” for short) in series [8] (0.95 weight %, tri-sodium salt) turned out to be 1.03. The “log Conditional Stability Constant (pH 10) Ca” value in series [9] was 4.27.

As to `O=C(O)CN(CCN(CC(=O)O)CC(=O)O)CC(=O)O` [EDTA, ethylenediaminetetraacetic acid], in [1] (lab condition, de-ionized water), the “Capacity at inhibiting the red-ox chemistry of copper (in words)” value was “very good capacity”. For the same molecule, in series [1], the “Peroxide % at t = 0” value was 3.576% and the “Peroxide % at t = 30mn” value was 3.573%. Moreover, in series [4], the “log K (stability constant, 1:1 complex) Ca” value is recorded as 10.65. In series [2] (setting [12]), the “Damage after 5 cycles” value is reported as 165 cysteic acid units. In series [2] (real conditions of use, high copper and Ca^2+ concentrations), the “Damage prevention properties (in words)” value was “very poor damage prevention properties”. For the same molecule, the “Damage benefit (in words)” value in [2] (unless utilized at levels much higher than 0.1%) was “very little benefits”. Besides, the “log Conditional Stability Constant (pH 10) Cu” value in [6] is 16.37. Also, the “log K (stability constant, 1:1 complex) Cu” value in series [7] is listed as 18.78.

For the molecule `CC(O)(P(=O)(O)O)P(=O)(O)O` [HEDP, 1-hydroxyethane-1,1-diphosphonic acid], in series [1], the “Hydrogen Peroxide Decomposition Ratio (% Loss)” value is on record as 32.3%, the “Peroxide % at t = 0” value was 4.126% and the “Peroxide % at t = 30mn” value was found to be 2.792%. In addition, the “log K (stability constant, 1:1 complex) Ca” value in series [4] is reported as 6.0. For the same molecule, in series [5], the “log protonation constant H2L^2−” value is 6.88, the “log protonation constant H3L^−” value was 2.53, the “log protonation constant H4L” value is 1.8 and the “log protonation constant HL^3−” value is listed as 10.8. The “Damage after 5 cycles” value in series [2] (setting [12]) came to 163 cysteic acid units. Moreover, in [2] (2.0% weight on-head, di-sodium salt, 5 cycles), the “Damage benefit vs EDTA 2%” value is listed as “+1%”. In series [6], the “log Conditional Stability Constant (pH 10) Cu” value is recorded as 8.98 and the “Ratio Cu/Ca of log Conditional Stability Constants” value was found to be 1.75. Moreover, the “log K (stability constant, 1:1 complex) Cu” value in series [7] is recorded as 11.84. In series [8] (1.0 weight % (tetra-sodium EDTA, di-sodium HEDP)), the “Normalized shine ratio” value came out at 0.730. Also, in series [9], the “log Conditional Stability Constant (pH 10) Ca” value came out at 5.13.

For `O=C(O)CC(NCC(O)CNC(CC(=O)O)C(=O)O)C(=O)O` (stereo not drawn) [HPPDS, 2-hydroxypropylenediamine-N,N′-disuccinic acid], the “Normalized shine ratio” value in [8] (0.97 weight %, tetra-sodium salt) was found to be 1.00.

Consider `CC(C(=O)O)N(CC(=O)O)CC(=O)O` (stereo not drawn) [MGDA, methylglycinediacetic acid], for which, in series [1], the “Hydrogen Peroxide Decomposition Ratio (% Loss)” value amounted to 11.3%, the “Peroxide % at t = 0” value is given as 3.498% and the “Peroxide % at t = 30mn” value was 3.104%.
